According to patent US8778889B2, “Antimicrobial decapeptide oral hygiene treatment” (The United States of America as represented by the …, priority 2003, dated 2014):
Values after ≈ are worked out from the molar mass of the structure shown. Square brackets hold non-standard residues; d marks the D form. Peptide text beside a SMILES is read from it. αMeK = C[C@](N)(CCCCN)C(=O)O

Columns and labels:
[1] = test system: A. baumannii WRAMC #11; format: cell-based, Acinetobacter baumannii
From the text: (§1) As shown in the table below, many drug-resistant pathogens including multidrug-resistant Acinetobacter baumannii (clinical isolates) were susceptible to the bactericidal activity of the newly developed antimicrobial peptides. […] This is shown by their lower MIC and MBC against a number of antibiotic-resistant bacteria including methicillin-resistant Staphylococcus aureus, vancomycin-resistant Enterococci, and multidrug-resistant Acinetobacter baumannii. Many of these resistant strains are involved in nosocomial infections, which affect the immunocompromised and the elderly individuals with weakened defenses. The tests were done in a broth microdilution assay as described in our earlier publication (Concannon et al., 2003).

[2] = test system: A. baumannii WRAMC #13; format: cell-based, Acinetobacter baumannii
From the text: as §1

[3] = test system: A. baumannii WRAMC #14; format: cell-based, Acinetobacter baumannii
From the text: as §1

[4] = test system: A. baumannii WRAMC #16; format: cell-based, Acinetobacter baumannii
From the text: as §1

[5] = test system: A. baumannii WRAMC #17; format: cell-based, Acinetobacter baumannii
From the text: as §1

[6] = test system: A. baumannii WRAMC #18; format: cell-based, Acinetobacter baumannii
From the text: as §1

[7] = test system: A. baumannii WRAMC #2; format: cell-based, Acinetobacter baumannii
From the text: as §1

[8] = test system: A. baumannii WRAMC #4; format: cell-based, Acinetobacter baumannii
From the text: as §1

[9] = test system: A. baumannii WRAMC #5; format: cell-based, Acinetobacter baumannii
From the text: as §1

[10] = test system: A. baumannii WRAMC #8; format: cell-based, Acinetobacter baumannii
From the text: as §1

[11] = test system: MRSA ATCC #33591; format: cell-based, Staphylococcus aureus
From the text: as §1

[12] = test system: MRSA ATCC #43300; format: cell-based, Staphylococcus aureus
From the text: as §1

[13] = test system: MRSA VVRAMC #10; format: cell-based, Staphylococcus aureus
From the text: as §1

[14] = test system: MRSA VVRAMC #1; format: cell-based, Staphylococcus aureus
From the text: as §1

[15] = test system: MRSA WRAMC #12; format: cell-based, Staphylococcus aureus
From the text: as §1

[16] = test system: MRSA WRAMC #9; format: cell-based, Staphylococcus aureus
From the text: as §1

[17] = test system: A. baumannii ATCC #19606; format: cell-based, Acinetobacter baumannii
From the text: as §1

[18] = test system: A. baumannii WRAMC #15; format: cell-based, Acinetobacter baumannii
From the text: as §1

[19] = test system: A. baumannii WRAMC #19; format: cell-based, Acinetobacter baumannii
From the text: as §1

[20] = test system: VRE ATCC #51299; format: cell-based, Enterococci
From the text: as §1

[21] = test system: VRE VVRAMC #7; format: cell-based, Enterococci
From the text: as §1

[22] = test system: VRE WRAMC #3; format: cell-based, Enterococci
From the text: as §1

[23] = test system: VRE WRAMC #6; format: cell-based, Enterococci
From the text: as §1

| Compound | MBC [1] [µg/mL] | MBC [2] [µg/mL] | MBC [3] [µg/mL] | MBC [4] [µg/mL] | MIC [4] [µg/mL] | MBC [5] [µg/mL] | MIC [5] [µg/mL] | MBC [6] [µg/mL] | MBC [7] [µg/mL] | MBC [8] [µg/mL] | MIC [8] [µg/mL] | MBC [9] [µg/mL] | MBC [10] [µg/mL] | MBC [11] [µg/mL] | MIC [11] [µg/mL] | MBC [12] [µg/mL] | MIC [12] [µg/mL] | MBC [13] [µg/mL] | MIC [13] [µg/mL] | MBC [14] [µg/mL] | further results |
| --- | --- | --- | --- | --- | --- | --- | --- | --- | --- | --- | --- | --- | --- | --- | --- | --- | --- | --- | --- | --- | --- |
| CC(C)[C@H](NC(=O)[C@H](CCCCN)NC(=O)[C@@H](N)CCCCN)C(=O)N[C@H](C(=O)N[C@@H](Cc1ccccc1)C(=O)N[C@@](C)(CCCCN)C(=O)N[C@H](C(=O)N[C@@H](CCCCN)C(=O)N[C@@H](Cc1ccccc1)C(=O)N[C@@H](CCCCN)C(N)=O)C(C)C)C(C)C [KSL-M, NH2-Lys-Lys-Val-Val-Phe-Lys(me)-Val-Lys-Phe-Lys-CONH2] (H-KKVVF[αMeK]VKFK-NH2) | 100 (≈ 79.1 µM) | 200 (≈ 158 µM) | 200 (≈ 158 µM) | 100 (≈ 79.1 µM) | 50 (≈ 39.6 µM) | 200 (≈ 158 µM) | 100 (≈ 79.1 µM) | 100 (≈ 79.1 µM) | 200 (≈ 158 µM) | 50 (≈ 39.6 µM) | 25 (≈ 19.8 µM) | 50 (≈ 39.6 µM) | >200 | >200 | >200 | >200 | >200 | >200 | >200 | >200 | MIC [10]: >200 µg/mL; MIC [14]: >200 µg/mL; MBC [15]: >200 µg/mL; MIC [15]: >200 µg/mL; MBC [16]: >200 µg/mL; MIC [16]: >200 µg/mL |
| H-DDDEEKFLRRIGRYGKKVVFWVKFK-NH2 [H1-2] | 50 | 50 | 50 | 25 | 12.5 | 100 | 25 | 25 | 200 | 50 | 25 | 25 | 25 | 12.5 | 3.125 | 12.5 | 3.125 | 25 | 1.56 | 25 | MBC [17]: 25 µg/mL; MIC [17]: 12.5 µg/mL; MIC [1]: 25 µg/mL; MBC [18]: 50 µg/mL; MIC [18]: 25 µg/mL; MBC [19]: 200 µg/mL; MIC [7]: 25 µg/mL; MBC [15]: 6.25 µg/mL; MIC [15]: 3.125 µg/mL; MBC [16]: 3.125 µg/mL; MBC [20]: 50 µg/mL; MIC [20]: 12.5 (25) μg/ml; MIC [21]: <1.56 µg/mL; MBC ([21]; VRE VVRAMC #7): 0 µg/mL; MBC [22]: 25 µg/mL; MIC [22]: 6.25 µg/mL; MBC [23]: 6.25 µg/mL; MIC [23]: <1.56 µg/mL |
